Measurements as given in paper PMC10597491 (PLOS ONE, 2023).
Bridge positions count the residues as written; N and C are the ends. Ends that are not written are not given here.

Experiments:
[1] = Plasma stability in vitro, human plasma; assay type: in vitro ADME; set-up: dose or concentration left out as unconfirmed; conditions: 37°C, incubated in duplicate, intact peptide by LC/MS/MS, read-out: t1/2 in human plasma (converted)
Description: (§1) Affinity maturation of these initial families produced ligands with improved affinities; and combinations of these ligands (one each for IL-7Rα and γc) were joined into heterodimers in a variety of orientations (i.e., joined by N-termini, C-termini, or N-to-C termini), with several connection chemistries, for testing as IL-7R agonists in cell-based assays. The lead peptide agonist for detailed characterization, as described here, is a fusion of peptides MDK1248 and MDK1188, joined with a short intervening linker to form the single-chain peptide MDK1472. The peptides were analyzed for sequence similarity to IL-7, and none was found.
(§2) Supplementary file pone.0286834.s001.pptx: S1 Fig Plasma stability of MDK 1472 in vitro. […] MDK1472 or control peptide YGGFL incubated in duplicate in human or cynomolgus plasma at 37°C. At indicated time points, compounds were isolated from the plasma and the quantity of intact peptides measured by LC/MS/MS (Study performed by Quintara Discovery, Hayward, CA). (PPTX) Click here for additional data file.

[2] = Plasma stability in vitro, cynomolgus plasma; assay type: in vitro ADME; set-up: dose or concentration left out as unconfirmed; conditions: cynomolgus monkey, 37°C, incubated in duplicate, intact peptide by LC/MS/MS, read-out: t1/2 in cynomolgus plasma (converted)
Description: as §1, §2

IL-7R = biological target: T1, IL-7R (Homo sapiens, UniProt P16871+P31785); assay: STAT5 phosphorylation in TF1-7Rα cells; assay type: cell-based
T1 construct: constructed to express full-length human IL-7Rα in TF-1 cells; TF-1 cells, which naturally express γc, but not IL-7Rα; expressed in transfected cells
T1 sequence (P16871 21-459): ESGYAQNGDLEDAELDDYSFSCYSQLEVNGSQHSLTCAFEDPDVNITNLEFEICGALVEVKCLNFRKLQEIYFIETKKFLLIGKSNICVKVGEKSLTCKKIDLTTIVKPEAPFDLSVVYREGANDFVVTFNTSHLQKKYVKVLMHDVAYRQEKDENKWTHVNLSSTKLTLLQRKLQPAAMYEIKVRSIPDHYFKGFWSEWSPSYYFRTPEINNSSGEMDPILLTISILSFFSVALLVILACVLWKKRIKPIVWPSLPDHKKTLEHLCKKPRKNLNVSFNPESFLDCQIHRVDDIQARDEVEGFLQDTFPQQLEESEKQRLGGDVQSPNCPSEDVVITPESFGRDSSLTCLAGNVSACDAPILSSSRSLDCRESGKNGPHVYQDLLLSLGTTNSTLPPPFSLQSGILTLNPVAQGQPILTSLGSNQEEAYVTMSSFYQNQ
T1 sequence (P31785 23-369): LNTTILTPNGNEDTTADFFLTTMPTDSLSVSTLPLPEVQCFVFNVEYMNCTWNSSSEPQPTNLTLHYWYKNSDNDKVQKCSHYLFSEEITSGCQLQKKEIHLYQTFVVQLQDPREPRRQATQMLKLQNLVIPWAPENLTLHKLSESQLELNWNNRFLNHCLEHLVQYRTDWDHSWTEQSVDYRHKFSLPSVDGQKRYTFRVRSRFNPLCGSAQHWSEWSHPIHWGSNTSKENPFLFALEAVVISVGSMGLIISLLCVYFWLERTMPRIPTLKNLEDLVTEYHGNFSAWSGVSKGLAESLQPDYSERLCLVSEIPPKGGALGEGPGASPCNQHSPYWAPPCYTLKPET
Procedure: The synthetic peptide MDK1472 was designed to bind simultaneously to IL-7Rα and γc subunits and was tested for its ability to induce phosphorylation of STAT5, the primary IL-7R signaling pathway.
Reactions were stopped and cell lysates prepared for pSTAT5 analysis.
(§3) Cells were deprived of growth factors by overnight incubation at 5×10^5 cells/mL in starvation medium (RPMI 1640 + 4.5 g/L glucose + 0.2% FBS + 2 mM L-glutamine + 1 mM NaPyr + 10 mM HEPES + 0.5x penicillin-streptomycin with no cytokine supplement) in T75 flasks. For assays, cells were plated in 96-well V-bottom plates at 2×10^5 cells/well. Three-fold serial dilutions in starvation medium of the test compounds or cytokine were added to the cells and incubated for 30 min at 37°C. Following incubation, cell extracts were prepared by adding a mixture of 10x Cell Lysis Buffer (Cell Signaling Technology Cat# 9803) and 100x HALT Phosphatase and Protease Inhibitor Cocktail (Thermo Fisher Cat# 78442) directly to the wells. The plates were agitated at 25°C for 5 min to prepare cell extracts for immediate use or to be stored at -80°C until assay. Detection of pSTAT5 was performed using a PathScan® Phospho-Stat5 (pTyr694) Sandwich ELISA Kit (Cell Signaling Technology Cat# 7113). Detection of pSTAT6 was performed using a PathScan® Phospho-Stat6 (pTyr641) Sandwich ELISA Kit (Cell Signaling Technology Cat# 7275). Detection of pSTAT3 was performed using a PathScan® Phospho-Stat3 (pTyr705) Sandwich ELISA Kit (Cell Signaling Technology Cat# 7300). Cell lysates were added to pre-coated ELISA wells and incubated at 4°C overnight. Primary and secondary antibody incubations and wash steps were performed according to the protocols supplied by the manufacturer. Assays were developed using TMB substrate (Surmodics Cat# TMBW-1000-01) for 5–10 min at 25°C and the reaction was stopped using STOP solution (Surmodics Cat# LSTP-1000-01).

IL-2βγc receptor = biological target: T2, IL-2βγc receptor (Homo sapiens, UniProt P31785); assay: IL-2-induced pSTAT5 in TF-1 cells expressing IL-2/15Rβ; assay type: cell-based
T2 construct: pcDNA3.1 expression vector encoding full-length IL-2Rβ, IL-7Rα, IL-9Rα, or IL-21Rα; TF-1 cells naturally express γc and IL-4Rα; expressed in transfected cells
T2 sequence (P31785 23-369): T1 sequence (P31785 23-369)
Procedure: as §3, with “Primary and secondary antibody incubations and wash steps were performed according to the protocols supplied by the manufacturer. Assays were developed using TMB substrate (Surmodics Cat# TMBW-1000-01) for 5–10 min at 25°C and the reaction was stopped using STOP solution (Surmodics Cat# LSTP-1000-01).” left out

half-life [1]: 2.5 days
half-life [2]: 4.33 days
EC50 (IL-7R; Fig 4A dose response, 30 min at 37°C, pSTAT5 ELISA): 18 nM
efficacy (Emax) of STAT5 phosphorylation relative to IL-7 (IL-7R; TF1-7Rα cells, Fig 3): full efficacy
IC50 (IL-2βγc receptor): ~5 µM
Substance: Ac-GWGIPWCTLDPGSLQCAWLGKHGGGGSGGVVCQDWEGVELCWQGG (disulfide 7-16, 32-41) [MDK1472]
dependence of agonist activity on IL-7Rα expression (IL-7R; TF-1 parental (γc+) versus TF1-7Rα cells): completely dependent on IL-7Rα expression
